Experiment [1] addresses HLA-DQ8 (Homo sapiens, UniProt P01909+P01920, A209T/A45G/C70Q/D89A/DUP78-78/E183D/E77G/F237L/G63E/H199R/I129T/K197E/L178F/L74F/L98V/Q57E/Q76R/S185I/S97I/T217I/T49S/V73L/Y58L). Description: MHC II/peptide competition binding assay, HLA-DQ8. How it is done: (§1) One skilled in the art would appreciate that the 15-mers used included shorter de-epitoped high molecular weight glutenin peptide sequences (mutated repeating antigenic units), as described throughout. For example, Table 2 provides a listing of 15-mers and the shorter mutated repeating antigenic units present therein. […] MHC II molecules were purified by affinity chromatography, and peptides were radiolabeled using the chloramine T method. After an incubation period, the bound and unbound radiolabeled species were separated, and their relative amounts were determined by either size-exclusion gel-filtration chromatography or monoclonal antibody capture of MHC. The percent of bound radioactivity was then determined.

Experiment [2] addresses HLA-DQ2.5 (Homo sapiens, UniProt P01909+P01920, A45G/A70V/D89A/E106A/E77G/E98D/H199R/L107V/N214S/P84L/P87L/T103K/T109R/T172A/T60S/V78E/V99I/Y58L/Y62S/Y69I/Y79F). The experiment can be described thus: MHC II/peptide competition binding assay, HLA-DQ2.5. The method, then: as §1
Experiment [3] deals with HLA-DQ7.5 (Homo sapiens, UniProt P01909+P01920). The experiment can be described thus: MHC II/peptide competition binding assay, HLA-DQ7.5. The method, then: The peptides were synthesized as purified material on the 2 mg scale with free acid C-termini (A&A labs, USA). One skilled in the art would appreciate that the 15-mers used included shorter de-epitoped high molecular weight glutenin peptide sequences (mutated repeating antigenic units), as described throughout. For example, Table 2 provides a listing of 15-mers and the shorter mutated repeating antigenic units present therein.
Briefly, competition assays using different concentrations of wild-type (WT) and modified glutenin peptides were conducted by diluting the peptides in NP40 buffer, and incubation for 2-4 days with purified MHC II and a radiolabeled known MHC binding peptide (peptide probe). MHC II molecules were purified by affinity chromatography, and peptides were radiolabeled using the chloramine T method. After an incubation period, the bound and unbound radiolabeled species were separated, and their relative amounts were determined by either size-exclusion gel-filtration chromatography or monoclonal antibody capture of MHC. The percent of bound radioactivity was then determined.

Experiment [4] concerns the target HLA-DQ2.2 (Homo sapiens, UniProt P01909+P01920, A45G/A70V/C70K/D167G/D89A/E106A/E183D/E77G/E98D/F237L/F77L/G63E/H199R/I129T/K197E/L107V/L178F/L74F/N214S/P84L/P87L/Q57E/Q76R/R75H/S185I/S97I/T103K/T109R/T172A/T60S/V73L/V78E/V99I/Y48F/Y58L/Y62S/Y69I/Y79F). The experiment can be described thus: MHC II/peptide competition binding assay, HLA-DQ2.2. As to conditions: Table 3; 15-mer peptides; >40000 signifies binding is undetectable by assay. How it is done:
as §1

Experiment [5] addresses HLA-DQ2.5. Description: MHC II competition binding assay (purified MHC II, radiolabeled probe peptide as competitor).
The mark [6] stands for this setting: Table 3, 15-mer peptides, >40000 signifies binding is undetectable by assay.

These results are taken from patent US20230416314A1, “MODIFIED HIGH MOLECULAR WEIGHT GLUTENIN SUBUNIT AND USES THEREOF” (Ukko Inc., priority 2020, published 2023).

Like-named read-outs stand apart in the source and are kept apart here. Residues, ends and D or L forms follow the SMILES beside them. No end group written: not given here.

What is called IC50 is the point on the concentration scale where inhibition reaches its midpoint. On to `CC(C)C[C@H](NC(=O)[C@H](CO)NC(=O)[C@@H](NC(=O)[C@@H]1CCCN1C(=O)[C@H](CC(=O)O)NC(=O)[C@H](Cc1ccc(O)cc1)NC(=O)CNC(=O)[C@H](Cc1c[nH]cn1)NC(=O)[C@H](CCC(N)=O)NC(=O)CNC(=O)[C@@H](N)CCC(N)=O)[C@@H](C)O)C(=O)N[C@@H](CCC(=O)O)C(=O)N[C@@H](CCC(N)=O)C(=O)N[C@@H](CO)C(=O)NCC(=O)O` [SEQ ID NO: 173] (H-QGQHGYDPTSLEQSG-OH; N-terminus assumed), for which the IC50 is more than 40 µM in experiment [1] and 15.9 µM in experiment [2].
In the case of `NC(=O)CC[C@H](NC(=O)CNC(=O)[C@@H](N)CCC(N)=O)C(=O)N[C@@H](CCC(=O)O)C(=O)N1CCC[C@H]1C(=O)N[C@@H](Cc1ccc(O)cc1)C(=O)NCC(=O)N1CCC[C@H]1C(=O)N[C@@H](CO)C(=O)N[C@@H](CO)C(=O)N1CCC[C@H]1C(=O)N[C@@H](CCC(=O)O)C(=O)N[C@@H](CCC(N)=O)C(=O)N[C@@H](CO)C(=O)NCC(=O)O` [SEQ ID NO: 176] (H-QGQEPYGPSSPEQSG-OH), the concentration for half-maximal inhibition (IC50) in experiment [3] came to 28.6 µM.
Take `C[C@@H](O)[C@H](NC(=O)[C@H](CO)NC(=O)[C@@H](NC(=O)[C@@H]1CCCN1C(=O)[C@H](Cc1ccc(O)cc1)NC(=O)[C@H](Cc1c[nH]cn1)NC(=O)[C@H](Cc1c[nH]c2ccccc12)NC(=O)[C@H](CCC(=O)O)NC(=O)[C@H](CCC(N)=O)NC(=O)CNC(=O)[C@@H](N)CCC(N)=O)[C@@H](C)O)C(=O)N[C@@H](CCC(=O)O)C(=O)N[C@@H](CCC(N)=O)C(=O)N[C@@H](CO)C(=O)NCC(=O)O` [P1h] (H-QGQEWHYPTSTEQSG-OH): the concentration for half-maximal inhibition (IC50) is more than 40 µM in experiment [1] (setting [6]), more than 40 µM in experiment [2] (setting [6]), 5.72 µM in experiment [4] and more than 40 µM in experiment [3] (setting [6]).
Consider `C[C@@H](O)[C@H](NC(=O)[C@@H]1CCCN1C(=O)[C@H](Cc1ccc(O)cc1)NC(=O)[C@H](Cc1ccc(O)cc1)NC(=O)CNC(=O)[C@H](CO)NC(=O)[C@H](CCC(N)=O)NC(=O)CNC(=O)[C@@H](N)CCC(N)=O)C(=O)N[C@@H](CO)C(=O)N1CCC[C@H]1C(=O)N[C@H](C(=O)N[C@@H](CCC(N)=O)C(=O)N[C@@H](CO)C(=O)NCC(=O)O)[C@@H](C)O` [SEQ ID NO: 179] (H-QGQSGYYPTSPTQSG-OH; N-terminus assumed), for which the values for the IC50 in experiment [1] and in experiment [2] were more than 40 µM and 29.7 µM, respectively.
Regarding `C[C@@H](O)[C@H](NC(=O)[C@@H]1CCCN1C(=O)[C@H](Cc1ccc(O)cc1)NC(=O)[C@H](Cc1ccc(O)cc1)NC(=O)CNC(=O)[C@@H]1CCCN1C(=O)[C@H](CCC(N)=O)NC(=O)CNC(=O)[C@@H](N)CCC(N)=O)C(=O)N[C@@H](CO)C(=O)N1CCC[C@H]1C(=O)N[C@@H](Cc1c[nH]cn1)C(=O)N[C@@H](CCC(N)=O)C(=O)N[C@@H](CO)C(=O)NCC(=O)O` [SEQ ID NO: 178] (H-QGQPGYYPTSPHQSG-OH; N-terminus assumed), the figures for the IC50 in experiment [1] and in experiment [2] were more than 40 µM and 29.4 µM, respectively.
`CC(C)C[C@H](NC(=O)[C@H](CO)NC(=O)[C@@H](NC(=O)[C@@H]1CCCN1C(=O)[C@H](Cc1ccc(O)cc1)NC(=O)[C@H](Cc1ccc(O)cc1)NC(=O)CNC(=O)[C@H](Cc1c[nH]cn1)NC(=O)[C@H](CCC(N)=O)NC(=O)CNC(=O)[C@@H](N)CCC(N)=O)[C@@H](C)O)C(=O)N[C@@H](Cc1c[nH]cn1)C(=O)N[C@@H](CCC(N)=O)C(=O)N[C@@H](CO)C(=O)NCC(=O)O` [P1f] (H-QGQHGYYPTSLHQSG-OH): the half-inhibitory concentration (IC50) in experiment [1] (setting [6]), in experiment [2] (setting [6]), in experiment [4] and in experiment [3] (setting [6]) was more than 40 µM throughout.
Turning to `C[C@@H](O)[C@H](NC(=O)[C@@H]1CCCN1C(=O)CNC(=O)[C@H](Cc1ccc(O)cc1)NC(=O)CNC(=O)[C@H](CCC(=O)O)NC(=O)[C@H](CCC(N)=O)NC(=O)CNC(=O)[C@@H](N)CCC(N)=O)C(=O)N[C@@H](CO)C(=O)NCC(=O)N[C@@H](CCC(=O)O)C(=O)N[C@@H](CCC(N)=O)C(=O)N[C@@H](CO)C(=O)NCC(=O)O` [SEQ ID NO: 177] (H-QGQEGYGPTSGEQSG-OH; N-terminus assumed), the 50% inhibitory concentration (IC50) was more than 40 µM in experiment [1] and 25.3 µM in experiment [2].
For the molecule `C[C@H](NC(=O)[C@@H]1CCCN1C(=O)CNC(=O)[C@H](Cc1c[nH]cn1)NC(=O)CNC(=O)[C@H](CCC(=O)O)NC(=O)[C@H](CCC(N)=O)NC(=O)CNC(=O)[C@@H](N)CCC(N)=O)C(=O)N[C@@H](CO)C(=O)N1CCC[C@H]1C(=O)N1CCC[C@H]1C(=O)N[C@@H](CCC(N)=O)C(=O)N[C@@H](CO)C(=O)NCC(=O)O` [SEQ ID NO: 175] (H-QGQEGHGPASPPQSG-OH; N-terminus assumed), the figures for the IC50 in experiment [1] and in experiment [2] were more than 40 µM and 22.1 µM, respectively.
`C[C@@H](O)[C@H](NC(=O)[C@@H]1CCCN1C(=O)[C@H](Cc1ccc(O)cc1)NC(=O)[C@H](Cc1ccc(O)cc1)NC(=O)[C@H](CCCNC(=N)N)NC(=O)[C@@H]1CCCN1C(=O)[C@H](CCC(N)=O)NC(=O)CNC(=O)[C@@H](N)CCC(N)=O)C(=O)N[C@@H](CO)C(=O)N1CCC[C@H]1C(=O)N[C@@H](CCCNC(=N)N)C(=O)N[C@@H](CCC(N)=O)C(=O)N[C@@H](CO)C(=O)NCC(=O)O` [P1e] (H-QGQPRYYPTSPRQSG-OH): the IC50 in experiment [1] (setting [6]) was 32.5 µM; in experiment [2] (setting [6]), 33.2 µM; in experiment [3] (setting [6]), 19.4 µM.
With `C[C@@H](O)[C@H](NC(=O)[C@@H]1CCCN1C(=O)[C@H](Cc1ccc(O)cc1)NC(=O)[C@H](Cc1ccc(O)cc1)NC(=O)CNC(=O)[C@H](CCC(=O)O)NC(=O)[C@H](CCC(N)=O)NC(=O)CNC(=O)[C@@H](N)CCC(N)=O)C(=O)N[C@@H](CO)C(=O)N1CCC[C@H]1C(=O)N[C@@H](CCC(=O)O)C(=O)N[C@@H](CCC(N)=O)C(=O)N[C@@H](CO)C(=O)NCC(=O)O` [P1b, reference compound] (H-QGQEGYYPTSPEQSG-OH; N-terminus assumed), the results for the IC50 in experiment [1] (setting [6]) and in experiment [2] (setting [6]) were 3.76 µM and 3.29 µM, respectively.
On to `C[C@H](NC(=O)[C@@H]1CCCN1C(=O)CNC(=O)[C@H](CCCNC(=N)N)NC(=O)CNC(=O)[C@H](CCC(=O)O)NC(=O)[C@H](CCC(N)=O)NC(=O)CNC(=O)[C@@H](N)CCC(N)=O)C(=O)N[C@@H](CO)C(=O)N1CCC[C@H]1C(=O)N[C@@H](CCCNC(=N)N)C(=O)N[C@@H](CCC(N)=O)C(=O)N[C@@H](CO)C(=O)NCC(=O)O` [SEQ ID NO: 145] (H-QGQEGRGPASPRQSG-OH), for which the IC50 in experiment [3] was more than 40 µM.
Take `C[C@@H](O)[C@H](NC(=O)[C@@H]1CCCN1C(=O)[C@H](Cc1ccc(O)cc1)NC(=O)[C@H](Cc1ccc(O)cc1)NC(=O)CNC(=O)[C@H](CCC(N)=O)NC(=O)[C@H](CCC(N)=O)NC(=O)CNC(=O)[C@@H](N)CCC(N)=O)C(=O)N[C@@H](CO)C(=O)N1CCC[C@H]1C(=O)N[C@@H](CCC(N)=O)C(=O)N[C@@H](CCC(N)=O)C(=O)N[C@@H](CO)C(=O)NCC(=O)O` [P1a, reference compound] (H-QGQQGYYPTSPQQSG-OH; N-terminus assumed): the half-maximal inhibitory concentration (IC50) in experiment [1] (setting [6]) was 14.2 µM; in experiment [2] (setting [6]), 29.8 µM.
On to `C[C@H](NC(=O)CNC(=O)[C@@H](N)CCC(N)=O)C(=O)N[C@@H](C)C(=O)NCC(=O)N[C@@H](Cc1ccc(O)cc1)C(=O)N[C@@H](Cc1ccc(O)cc1)C(=O)N1CCC[C@H]1C(=O)N[C@H](C(=O)N[C@@H](CO)C(=O)N1CCC[C@H]1C(=O)N[C@@H](CCCNC(=N)N)C(=O)N[C@@H](CCC(N)=O)C(=O)N[C@@H](CO)C(=O)NCC(=O)O)[C@@H](C)O` [P1c] (H-QGAAGYYPTSPRQSG-OH), for which the 50% inhibitory concentration (IC50) was more than 40 µM in experiment [1] (setting [6]), more than 40 µM in experiment [2] (setting [6]) and 19.9 µM in experiment [3] (setting [6]).

B1: modified 15-mer peptide … (SEQ ID NO: 179) (peptide)
peptide: QGQSGYYPTSPTQSG-OH
In the case of B1, in experiment [5], the IC50 turned out to be 29.7 µM.

B2: modified 15-mer peptide … (SEQ ID NO: 143) (peptide)
peptide: QGQKGYYPTSPHQSG-OH
On to B2, for which, in experiment [5], the IC50 is 34.4 µM.

B3: modified 15-mer peptide … (SEQ ID NO: 178) (peptide)
peptide: QGQPGYYPTSPHQSG-OH
In turn, B3 came in with a half-maximal inhibitory concentration (IC50) in experiment [5] of 29.4 µM.

B4: modified 15-mer peptide … (SEQ ID NO: 177) (peptide)
peptide: QGQEGYGPTSGEQSG-OH
B4 displayed a concentration for half-maximal inhibition (IC50) in experiment [5] of 25.3 µM.

B5: modified 15-mer peptide … (SEQ ID NO: 175) (peptide)
peptide: QGQEGHGPASPPQSG-OH
In turn, B5 came in with a half-maximal inhibitory concentration (IC50) in experiment [5] of 22.1 µM.

B6: modified 15-mer peptide … (SEQ ID NO: 173) (peptide)
peptide: QGQHGYDPTSLEQSG-OH
B6 yielded a concentration for half-maximal inhibition (IC50) in experiment [5] of 15.9 µM.
